# Laboratory results from patent US20200289392A1, “A MELANOGENESIS INHIBITOR COMPOSITION” (Dow Global Technologies LLC, priority 2017, published 2020).
# Target: T1, tyrosinase (Homo sapiens, UniProt P14679)
# T1 sequence (P14679 19-529): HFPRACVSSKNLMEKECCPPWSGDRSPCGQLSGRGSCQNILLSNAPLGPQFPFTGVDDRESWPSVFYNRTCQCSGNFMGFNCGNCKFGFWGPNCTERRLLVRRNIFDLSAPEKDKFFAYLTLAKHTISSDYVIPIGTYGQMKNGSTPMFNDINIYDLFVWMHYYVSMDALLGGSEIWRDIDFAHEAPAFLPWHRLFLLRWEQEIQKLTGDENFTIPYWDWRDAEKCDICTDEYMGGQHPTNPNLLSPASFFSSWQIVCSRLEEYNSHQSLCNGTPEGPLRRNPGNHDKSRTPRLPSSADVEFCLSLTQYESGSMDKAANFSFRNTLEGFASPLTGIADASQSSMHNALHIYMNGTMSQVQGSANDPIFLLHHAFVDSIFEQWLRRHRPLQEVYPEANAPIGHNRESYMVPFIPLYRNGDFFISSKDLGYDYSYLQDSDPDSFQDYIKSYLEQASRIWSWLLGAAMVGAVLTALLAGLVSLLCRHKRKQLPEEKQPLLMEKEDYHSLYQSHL
# Experiment: Tyrosinase inhibition
# Format: biochemical
# Conditions: 0.1 wt % active concentration; compared to 0.1 wt % kojic acid
row,Structure (SMILES),tyrosinase inhibition activity compared to that of kojic acid
1,"CC(C)/[N+]([O-])=C/c1ccc(O)cc1 [pHBz-IPHA, (Z)—N-(4-hydroxybenzylidene)propan-2-amine oxide]",about 60%
2,"COc1cc(/C=[N+](\[O-])C(C)C)ccc1O [VAN-IPHA, (Z)—N-(4-hydroxy-3-methoxybenzylidine)propan-2-amine oxide]",negligible
